Data set [1] has as its system PI3K. Conditions: reported, Raynaud et al 2007; read-out: IC50 PI3K (second named); cited from earlier work.
The test system of data set [2] is human tumor xenograft models. To be noted: cited from earlier work.
Data set [3] has as its target PI3 Kinase γ (Homo sapiens, UniProt P48736). Put plainly: Fluorescence polarization assay for PI3K (PI3 Kinase γ). The class given is biochemical. Conditions: diC8-PI(4,5)P2 substrate, 25 μM ATP, one hour at 25° C. In general terms: In fluorescence polarisation assays a small probe gives low polarisation when free and higher when bound to something large.
The target in data set [4] is PI3 Kinase α (Homo sapiens, UniProt P42336). Put plainly: Fluorescence polarization assay for PI3K (PI3 Kinase α). The class given is biochemical. Conditions: diC8-PI(4,5)P2 substrate, 25 μM ATP, one hour at 25° C.
Chain of PI3 Kinase α (P42336 whole entry): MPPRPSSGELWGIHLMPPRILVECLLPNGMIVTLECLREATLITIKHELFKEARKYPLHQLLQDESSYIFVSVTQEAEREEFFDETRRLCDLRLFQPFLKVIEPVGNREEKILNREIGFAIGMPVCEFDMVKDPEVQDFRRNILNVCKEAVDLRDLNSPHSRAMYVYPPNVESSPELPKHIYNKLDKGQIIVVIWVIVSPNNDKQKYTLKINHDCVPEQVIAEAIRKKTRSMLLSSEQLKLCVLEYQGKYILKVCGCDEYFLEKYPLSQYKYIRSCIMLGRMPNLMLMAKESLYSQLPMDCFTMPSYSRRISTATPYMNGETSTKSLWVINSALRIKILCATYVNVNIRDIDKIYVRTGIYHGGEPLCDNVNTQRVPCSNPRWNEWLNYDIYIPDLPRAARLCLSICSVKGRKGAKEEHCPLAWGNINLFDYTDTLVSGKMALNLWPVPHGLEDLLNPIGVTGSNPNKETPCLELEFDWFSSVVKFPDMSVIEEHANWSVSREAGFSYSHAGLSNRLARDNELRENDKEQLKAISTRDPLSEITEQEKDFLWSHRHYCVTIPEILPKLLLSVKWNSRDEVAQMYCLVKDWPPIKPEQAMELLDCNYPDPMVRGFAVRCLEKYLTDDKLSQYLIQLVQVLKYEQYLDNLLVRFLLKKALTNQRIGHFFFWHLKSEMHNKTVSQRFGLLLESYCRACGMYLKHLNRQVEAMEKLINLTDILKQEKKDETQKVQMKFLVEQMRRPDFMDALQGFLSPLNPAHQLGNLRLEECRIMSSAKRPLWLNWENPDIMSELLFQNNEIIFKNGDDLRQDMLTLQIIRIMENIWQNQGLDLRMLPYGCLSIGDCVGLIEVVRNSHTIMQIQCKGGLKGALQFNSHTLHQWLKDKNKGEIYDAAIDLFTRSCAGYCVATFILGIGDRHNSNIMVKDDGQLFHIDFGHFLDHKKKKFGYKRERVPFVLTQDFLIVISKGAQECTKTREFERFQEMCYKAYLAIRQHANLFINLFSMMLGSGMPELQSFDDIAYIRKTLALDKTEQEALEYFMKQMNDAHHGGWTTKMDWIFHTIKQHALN
Chain of PI3 Kinase α (P27986 whole entry partner): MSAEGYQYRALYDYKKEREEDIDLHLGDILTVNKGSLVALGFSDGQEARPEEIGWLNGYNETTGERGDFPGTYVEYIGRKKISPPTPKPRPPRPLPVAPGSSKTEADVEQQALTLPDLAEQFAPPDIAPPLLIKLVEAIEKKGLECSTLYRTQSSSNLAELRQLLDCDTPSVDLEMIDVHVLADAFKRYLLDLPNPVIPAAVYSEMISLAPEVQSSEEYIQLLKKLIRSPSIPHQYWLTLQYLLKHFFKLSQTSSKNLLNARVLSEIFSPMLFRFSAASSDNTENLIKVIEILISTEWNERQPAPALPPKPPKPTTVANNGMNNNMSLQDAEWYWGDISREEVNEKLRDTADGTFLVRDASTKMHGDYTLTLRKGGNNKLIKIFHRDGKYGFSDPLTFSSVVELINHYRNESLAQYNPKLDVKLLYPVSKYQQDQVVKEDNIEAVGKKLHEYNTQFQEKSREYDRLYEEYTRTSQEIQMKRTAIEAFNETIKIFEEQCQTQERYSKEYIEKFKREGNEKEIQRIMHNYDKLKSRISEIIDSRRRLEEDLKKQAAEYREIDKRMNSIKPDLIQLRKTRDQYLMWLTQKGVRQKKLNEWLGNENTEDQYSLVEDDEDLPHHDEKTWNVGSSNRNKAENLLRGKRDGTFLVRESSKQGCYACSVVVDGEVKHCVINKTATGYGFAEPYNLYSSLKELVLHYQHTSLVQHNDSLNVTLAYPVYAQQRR
The target in data set [5] is mTOR enzymes (Homo sapiens, UniProt P42345). To be noted: read-out: IC50 mTOR enzymes; reported in the literature; cited from earlier work.

Counter-ions that a name gives are not always drawn. Like-named read-outs stand apart in the source and are kept apart here.

Chain of PI3 Kinase γ (P48736 whole entry): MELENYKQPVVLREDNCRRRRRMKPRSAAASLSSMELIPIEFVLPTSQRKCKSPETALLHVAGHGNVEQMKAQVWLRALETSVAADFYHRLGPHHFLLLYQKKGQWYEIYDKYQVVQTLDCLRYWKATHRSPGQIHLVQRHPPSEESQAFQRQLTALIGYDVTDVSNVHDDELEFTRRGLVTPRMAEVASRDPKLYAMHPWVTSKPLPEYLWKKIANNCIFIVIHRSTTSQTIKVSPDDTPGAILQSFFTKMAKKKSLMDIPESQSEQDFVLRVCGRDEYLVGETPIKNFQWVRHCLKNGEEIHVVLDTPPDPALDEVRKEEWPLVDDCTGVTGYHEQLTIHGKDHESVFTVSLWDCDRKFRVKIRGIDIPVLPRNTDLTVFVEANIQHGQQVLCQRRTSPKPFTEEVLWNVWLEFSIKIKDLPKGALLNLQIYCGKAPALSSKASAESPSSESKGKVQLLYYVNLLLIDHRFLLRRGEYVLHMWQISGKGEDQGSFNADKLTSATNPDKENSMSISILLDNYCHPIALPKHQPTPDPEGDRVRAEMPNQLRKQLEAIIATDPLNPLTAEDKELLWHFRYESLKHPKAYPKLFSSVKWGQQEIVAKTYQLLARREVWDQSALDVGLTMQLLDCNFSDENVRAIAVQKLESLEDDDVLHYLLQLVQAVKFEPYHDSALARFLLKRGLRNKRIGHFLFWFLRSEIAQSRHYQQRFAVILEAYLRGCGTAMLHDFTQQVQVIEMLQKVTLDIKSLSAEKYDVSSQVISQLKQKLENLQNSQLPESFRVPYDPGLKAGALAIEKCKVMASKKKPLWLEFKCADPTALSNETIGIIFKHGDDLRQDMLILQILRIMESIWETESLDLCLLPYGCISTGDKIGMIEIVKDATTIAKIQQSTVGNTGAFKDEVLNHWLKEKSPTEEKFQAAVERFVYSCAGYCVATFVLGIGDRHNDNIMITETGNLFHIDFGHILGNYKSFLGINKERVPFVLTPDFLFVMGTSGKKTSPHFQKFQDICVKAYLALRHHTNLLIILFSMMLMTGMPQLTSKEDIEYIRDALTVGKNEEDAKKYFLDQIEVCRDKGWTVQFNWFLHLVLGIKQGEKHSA

As to `Oc1cccc(-c2nc(N3CCOCC3)c3oc4ncccc4c3n2)c1` [PI103, 3-(4-(4-morpholinyl)pyrido[3′,2′:4,5]furo[3,2-d]pyrimidin-2-yl)phenol], the half-inhibitory concentration (IC50) (commonly the concentration needed to halve the response being measured) in data set [1] was […]. Further, in data set [2] (I.P. dosing in mice, U87MG, PC3, MDA-MB-468, MDA-MB-435, HCT 116, SKOV3, IGROV-1), the “activity in human tumor xenograft models” value is “demonstrated activity”.
In the case of `O=C(Nc1ccncc1)Nc1ccc(-c2nc(N3CCOCC3)c3nnn(C4CCOCC4)c3n2)cc1` (as salt: HCl) [Example 198, 1-{4-[7-morpholin-4-yl-3-(tetrahydro-2H-pyran-4-yl)-3H-[1,2,3]triazolo[4,5-d]pyrimidin-5-yl]phenyl}-3-pyridin-4-ylurea], the melting point (usually the temperature of the solid-liquid transition) was determined as 332 °C.
Regarding `Cn1nnc2c(N3CCOCC3)nc(-c3ccc(NC(=O)Nc4ccsc4)cc3)nc21` [Example 201, 1-[4-(3-methyl-7-morpholin-4-yl-3H-[1,2,3]triazolo[4,5-d]pyrimidin-5-yl)phenyl]-3-(3-thienyl)urea], the melting point came out at 272 °C. In data set [3], this compound came in with an IC50 of 0.0255 µM. For the same compound, half-maximal inhibition in data set [4] (IC50) required 0.0045 µM.
As to `CO[C@H]1C[C@@H]2CC[C@@H](C)[C@@](O)(O2)C(=O)C(=O)N2CCCC[C@H]2C(=O)O[C@H]([C@H](C)C[C@@H]2CC[C@@H](OC(=O)C(C)(CO)CO)[C@H](OC)C2)CC(=O)[C@H](C)/C=C(\C)[C@@H](O)[C@@H](OC)C(=O)[C@H](C)C[C@H](C)/C=C/C=C/C=C/1C` [Torisel], the “activity in xenograft mouse model” value in data set [2] (NOS/SCID xenograft mouse model of acute lymphoblastic leukemia) is reported as “active”.
As for `Cn1c(=O)n(-c2ccc(C(C)(C)C#N)cc2)c2c3cc(-c4cnc5ccccc5c4)ccc3ncc21` [NVP-BEZ-235, 2-methyl-2-(4-(3-methyl-2-oxo-8-(quinolin-3-yl)-2,3-dihydro-1H-imidazo[4,5-c]quinolin-1-yl)phenyl)propanenitrile], in data set [2] (prostrate (PC-3) and glioblastoma (U-87)), the “activity in human tumor xenograft models” value was “demonstrated activity”.
With `FC(F)c1nc2ccccc2n1-c1nc(N2CCOCC2)nc(N2CCOCC2)n1` [ZSTK474, 2-(2-difluoromethylbenzoimidazol-1-yl)-4,6-dimorpholino-1,3,5-triazine], the “tumor growth in mouse human xenograft cancer models” value in data set [2] (chronic oral administration, 400 mg/kg, A549, PC-3, WiDr) was “completely inhibited growth”. Moreover, in data set [5], the concentration for half-maximal inhibition (IC50) was greater than 10 µM.
Turning to `CN(C)CCNC(=O)Nc1ccc(-c2nc(N3CCOCC3)c3nnn(C4CCN(Cc5ccccc5)CC4)c3n2)cc1` [Example 4, 1-{4-[3-(1-benzylpiperidin-4-yl)-7-morpholin-4-yl-3H-[1,2,3]triazolo[4,5-d]pyrimidin-5-yl]phenyl}-3-[2-(dimethylamino)ethyl]urea], the 50% inhibitory concentration (IC50) in data set [3] came to 0.204 µM; in data set [4] it was 0.066 µM.
For `C[C@H](NC(=O)c1ccc(Cn2nnc3c(N4CCOCC4)nc(-c4cccc(O)c4)nc32)cc1)c1ccccc1` [Example 224, 4-{[5-(3-hydroxyphenyl)-7-morpholin-4-yl-3H-[1,2,3]triazolo[4,5-d]pyrimidin-3-yl]methyl}-N-[(1S)-1-phenylethyl]benzamide], in that order: 1.91 µM and 0.09 µM.
On the same counts, the results for `Oc1cccc(-c2nc(N3CCOCC3)c3nnn(CCN4CCN(C5CCCCC5)CC4)c3n2)c1` [Example 106, 3-{3-[2-(4-cyclohexylpiperazin-1-yl)ethyl]-7-morpholin-4-yl-3H-[1,2,3]triazolo[4,5-d]pyrimidin-5-yl}phenol] are 2.14 µM and 0.556 µM.
For `Oc1cncc(-c2nc(N3CCOCC3)c3nnn(C4CCN(Cc5ccc(-c6ccncc6)cc5)CC4)c3n2)c1` [Example 31, 5-{7-morpholin-4-yl-3-[1-(4-pyridin-4-ylbenzyl)piperidin-4-yl]-3H-[1,2,3]triazolo[4,5-d]pyrimidin-5-yl}pyridin-3-ol], in that order: 2.28 µM and 0.298 µM.
Regarding `CCCCN1CCC(n2nnc3c(N4CCOCC4)nc(-c4ccc(NC(=O)NCCN(C)C)cc4)nc32)CC1` [Example 159, 1-(4-(3-(1-butylpiperidin-4-yl)-7-morpholino-3H-[1,2,3]triazolo[4,5-d]pyrimidin-5-yl)phenyl)-3-(2-(dimethylamino)ethyl)urea], the IC50 is 0.685 µM in data set [3] and 0.166 µM in data set [4].
For the compound `Cc1cc(CN2CCC(n3nnc4c(N5CCOCC5)nc(-c5cncc(O)c5)nc43)CC2)sc1C` [Example 26, 5-(3-{1-[(4,5-dimethyl-2-thienyl)methyl]piperidin-4-yl}-7-morpholin-4-yl-3H-[1,2,3]triazolo[4,5-d]pyrimidin-5-yl)pyridin-3-ol], the concentration for half-maximal inhibition (IC50) came to 0.108 µM in data set [3] and 0.016 µM in data set [4].
`Oc1cccc(-c2nc(N3CCOCC3)c3nnn(CCc4ccccn4)c3n2)c1` [Example 196, 3-[7-Morpholin-4-yl-3-(2-pyridin-2-yl-ethyl)-3H-[1,2,3]triazolo[4,5-d]pyrimidin-5-yl]-phenol]: the IC50 in data set [3] is 1.06 µM; in data set [4], 0.0755 µM.
As for `CNC(=O)c1ccc(Cn2nnc3c(N4CCOCC4)nc(-c4cccc(O)c4)nc32)cc1` [Example 207, 4-{[5-(3-hydroxyphenyl)-7-morpholin-4-yl-3H-[1,2,3]triazolo[4,5-d]pyrimidin-3-yl]methyl}-N-methylbenzamide], the IC50 in data set [3] came to 2.65 µM; in data set [4] it was 0.342 µM.
For `CCn1nnc2c(N3CCOC[C@@H]3C)nc(-c3ccc(NC(=O)Nc4ccc(CCO)cc4)cc3)nc21` [Example 68, (S)-1-(4-(3-ethyl-7-(3-methylmorpholino)-3H-[1,2,3]triazolo[4,5-d]pyrimidin-5-yl)phenyl)-3-(4-(2-hydroxyethyl)phenyl)urea], the IC50 in data set [3] was determined as 0.0703 µM; in data set [4], 0.009 µM.
